Key:
Assay type in all cases: cell-based, human
T47D cell line = experiment: MTT cytotoxicity assay, T47D breast cancer cells; conditions: for Selectivity index SI T47D: IC50(BJ)/IC50(T47D); for IC50: MTT, 48 h incubation
Protocol: (§1) Cytotoxicity of tested compounds was evaluated against breast cancer cell lines (MDA-MB-468, MDA-MB-231, MCF-7, and T47D) and normal human fibroblast BJ cell line as a control. All tested cell lines were obtained from the American Type Culture Collection (ATCC, Manassas, VA, USA). MDA-MB-468 and MDA-MB-231 were cultured in F12-K medium (Corning, New York City, NY, USA), MCF-7 and BJ in EMEM medium (Corning, New York City, NY, USA), and T47D in RPMI medium (Corning, New York City, NY, USA). All of these culture media were supplemented with 10% heat-inactivated FBS (PAN-Biotech, Aidenbach, Germany) and antibiotics (100 U/mL of penicillin, 100 μg/mL of streptomycin, and 0.25 μg/mL amphotericin B, respectively; Sigma-Aldrich, St. Louis, MO, USA) in a humidified 5% CO2 atmosphere at 37 °C. The cells were used exclusively for 10 passages.
(§2) The cells were seeded in 96-well plates at a concentration of 5 × 10^4 cells/mL and incubated at 37 °C with 5% CO2 air. When 70–80% culture confluence was achieved the tested compounds were added. […] The cell viability assessment was measured using the MTT assay (Invitrogen, Waltham, MA, USA) based on the ability of living cells to reduce […] tetrazolium salt, by cellular dehydrogenases, to water-insoluble purple formazan crystals. MTT solution (4 mg/mL) was added to the culture after 48 h of incubation with the tested compounds. Following 4 h of incubation, the medium with MTT salt was removed and the obtained crystals were dissolved in DMSO. The solution absorbency was measured at 570 nm using a PowerWave™ microplate spectrophotometer (Bio-Tek Instruments, Winooski, VT, USA). Each experiment was performed twice with measurement in triplicate. The IC50 values were determined using the AAT Bioquest IC50 calculator with a four parameter logistic regression model (AAT Bioquest, Inc. Pleasanton, CA, USA (14 April 2024). Quest Graph™ IC50 Calculator. AAT Bioquest. https://www.aatbio.com/tools/ic50-calculator, accessed on 12 October 2024).

MDA-MB-231 cell line = experiment: MTT cytotoxicity assay, MDA-MB-231 breast cancer cells; conditions: for Selectivity index SI MDA-MB-231: IC50(BJ)/IC50(MDA-MB-231); for IC50: MTT, 48 h incubation
Protocol: as §1, §2

MCF-7 cell line = experiment: MTT cytotoxicity assay, MCF-7 breast cancer cells; conditions: for Selectivity index SI MCF-7: IC50(BJ)/IC50(MCF-7); for IC50: MTT, 48 h incubation
Protocol: as §1, §2

MDA-MB-468 cell line = experiment: MTT cytotoxicity assay, MDA-MB-468 breast cancer cells; conditions: for Selectivity index SI MDA-MB-468: IC50(BJ)/IC50(MDA-MB-468); for IC50: MTT, 48 h incubation
Protocol: as §1, §2

Compound	Selectivity index SI T47D (T47D cell line)	IC50 (T47D cell line)	Selectivity index SI MDA-MB-231 (MDA-MB-231 cell line)	IC50 (MDA-MB-231 cell line)	Selectivity index SI MCF-7 (MCF-7 cell line)	IC50 (MCF-7 cell line)	Selectivity index SI MDA-MB-468 (MDA-MB-468 cell line)	IC50 (MDA-MB-468 cell line)	IC50 (T47D cell line; Homo sapiens, T47D)	IC50 (MDA-MB-231 cell line; Homo sapiens, MDA-MB-231)	IC50 (MCF-7 cell line; Homo sapiens, MCF7)	IC50 (MDA-MB-468 cell line; Homo sapiens, MDA-MB-468)
5-{[4-(3-Fluoromethylphenyl)piperazin-1-yl]methylidene}-2-thioxo-1,3-thiazolidin-4-one [Compound 9]	1	> 200 µM	1	> 200 µM	2.74	73 µM	3.17	63 µM				
O=C1NC(=S)SC1=CN1CCN(c2ccc(Cl)cc2)CC1 [Compound 5, 5-{[4-(4-Chlorophenyl)piperazin-1-yl]methylidene}-2-thioxo-1,3-thiazolidin-4-one]	1		1		1		1.19		> 200 µM	> 200 µM	> 200 µM	168 µM
O=C1NC(=S)SC1=CN1CCN(c2ccc([N+](=O)[O-])cc2)CC1 [Compound 6, 5-{[4-(4-Nitrophenyl)piperazin-1-yl]methylidene}-2-thioxo-1,3-thiazolidin-4-one]	1.08		2.17		1		3.7		186 µM	92 µM	> 200 µM	54 µM
O=C1NC(=S)SC1=CN1CCN(c2cccc(Cl)c2)CC1 [Compound 7, 5-{[4-(3-Chlorophenyl)piperazin-1-yl]methylidene}-2-thioxo-1,3-thiazolidin-4-one]	1		1.27		1		2.1		> 200 µM	157 µM	> 200 µM	95 µM
O=C1NC(=S)SC1=CN1CCN(c2cccc(F)c2)CC1 [Compound 8, 5-{[4-(3-Fluorophenyl)piperazin-1-yl]methylidene}-2-thioxo-1,3-thiazolidin-4-one]	1		1.29		1		1		> 200 µM	155 µM	> 200 µM	> 200 µM
O=C1NC(=S)SC1=CN1CCN(c2ccc(Cl)c(Cl)c2)CC1 [Compound 10, 5-{[4-(3,4-Dichlorophenyl)piperazin-1-yl]methylidene}-2-thioxo-1,3-thiazolidin-4-one]	2.2		1.90		6.45		3.63		91 µM	105 µM	31 µM	55 µM
COc1cccc(N2CCN(C=C3SC(=S)NC3=O)CC2)c1 [Compound 11, 5-{[4-(3-Methoxyphenyl)piperazin-1-yl]methylidene}-2-thioxo-1,3-thiazolidin-4-one]	1		1.25		1		2.17		> 200 µM	160 µM	> 200 µM	92 µM
O=C1NC(=S)SC1=CN1CCN(C(c2ccc(F)cc2)c2ccc(F)cc2)CC1 [Compound 12, 5-({4-[Bis(4-fluorophenyl)methyl]piperazin-1-yl}methylidene)-2-thioxo-1,3-thiazolidin-4-one]	1		1.36		5.56		5.41		> 200 µM	147 µM	36 µM	37 µM
O=C1C(=CN2CCN(c3ccc(Cl)cc3)CC2)SC(=S)N1c1ccccc1 [Compound 13, 5-{[4-(4-Chlorophenyl)piperazin-1-yl]methylidene}-3-phenyl-2-thioxo-1,3-thiazolidin-4-one]	1		1.38		2.99		1.12		> 200 µM	145 µM	67 µM	179 µM
O=C1C(=CN2CCN(c3cccc(Cl)c3)CC2)SC(=S)N1c1ccccc1 [Compound 14, 5-{[4-(3-Chlorophenyl)piperazin-1-yl]methylidene}-3-phenyl-2-thioxo-1,3-thiazolidin-4-one]	1		1		1		1		> 200 µM	> 200 µM	> 200 µM	> 200 µM
O=C1C(=CN2CCN(C(c3ccc(F)cc3)c3ccc(F)cc3)CC2)SC(=S)N1c1ccccc1 [Compound 15, 5-({4-[Bis(4-fluorophenyl)methyl]piperazin-1-yl}methylidene)-3-phenyl-2-thioxo-1,3-thiazolidin-4-one]	1.06		2.63		4.44		4.26		189 µM	76 µM	45 µM	47 µM
O=C1C(=CN2CCN(c3cccc(F)c3)CC2)SC(=S)N1c1ccccc1 [Compound 16, 5-{[4-(3-Fluorophenyl)piperazin-1-yl]methylidene}-3-phenyl-2-thioxo-1,3-thiazolidin-4-one]	1		1.12		1		1		> 200 µM	179 µM	> 200 µM	> 200 µM
COc1cccc(N2CCN(C=C3SC(=S)N(c4ccccc4)C3=O)CC2)c1 [Compound 17, 5-{[4-(3-Methoxyphenyl)piperazin-1-yl]methylidene}-3-phenyl-2-thioxo-1,3-thiazolidin-4-one]	1		1.69		1.18		3.45		> 200 µM	118 µM	169 µM	58 µM

Source: article PMC11594716, “Rhodanine–Piperazine Hybrids as Potential VEGFR, EGFR, and HER2 Targeting Anti-Breast Cancer Agents” (International Journal of Molecular Sciences, 2024)
